Laboratory results published in patent US7022699B2, “Cyclohexenyl phenyl diazepines vasopressin and oxytocin receptor modulators” (Wyeth, priority 2001, dated 2006).

Each molecule was assayed against T1, human vasopressin V2 receptor subtype (Homo sapiens, UniProt P30518) (assay: Vasopressin binding in CHO cell membranes expressing human vasopressin V2 subtype receptors ([3H]arginine vasopressin)). Settings: 100 nM, values without parentheses.
T1 construct: host or cells: CHO cells, stably transfected (pZeoSV vector); membranes
T1 sequence (P30518 whole entry): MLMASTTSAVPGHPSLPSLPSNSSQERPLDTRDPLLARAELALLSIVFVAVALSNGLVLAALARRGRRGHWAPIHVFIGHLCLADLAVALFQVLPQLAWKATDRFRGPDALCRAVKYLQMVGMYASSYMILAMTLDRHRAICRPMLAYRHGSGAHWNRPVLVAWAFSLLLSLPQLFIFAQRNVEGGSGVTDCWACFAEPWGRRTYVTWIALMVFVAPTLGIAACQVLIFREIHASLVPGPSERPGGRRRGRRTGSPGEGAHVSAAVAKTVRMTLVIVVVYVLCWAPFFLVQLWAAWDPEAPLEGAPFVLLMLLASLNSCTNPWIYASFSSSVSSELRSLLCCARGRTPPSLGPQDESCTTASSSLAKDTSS
Description: Vasopressin Binding in Chinese Hamster Ovary Cell Membranes Expressing Human Vasopressin V2 Subtype Receptors
Chinese Hamster Ovary (CHO) cells stably transfected with the human V2 subtype receptors were obtained from M. Thibonnier, Case Western Reserve University School of Medicine, Cleveland, Ohio.
A. Passaging and Amplification of Cells:
CHO cells transfected with the human vasopressin V2 subtype receptors obtained from M. Thibonnier (pZeoSV vector) are allowed to grow to confluency (approx. >90%) in T-150 flasks under sterile conditions, in a cell culture medium of F-12 Nutrient Mixture (HAM) with L-glutamine (Gibco Cat. #11765-054) containing 15 mM HEPES (Gibco Cat. #15630-080), 1% antibiotic/antimycotic (add 5 mL 100×, Gibco Cat. #15240-062 per 500 mL F-12), 250 μg/mL Zeocin (add 1.25 mL of 100 mg/mL Invitrogen R-250-01 per 500 mL F-12) and 10% Fetal Bovine Serum (Qualified, heat inactivated, Gibco Cat. #16140-063). The medium is removed by aspiration and the cells washed with 10 mL of Hank's Balanced Salt solution (Gibco Cat. #14175-095). The salt solution is removed by aspiration and the cells trypsinized with 5 mL of trypsin-EDTA (0.05% trypsin, 0.53 mM EDTA-4Na, Gibco Cat. #25300-070) for 1 min. The trypsin is removed by aspiration and the cells dislodged by tapping. Cell Culture medium (e.g. 30 mL for 1:30 split) is immediately added and mixed well to inactivate trypsin. 1 mL of detached cells is added to new culture flasks containing fresh Cell Culture medium (e.g. into 25 mL per T-150 flask), and mixed gently. The cells are incubated at 37° C. in 5% CO2. The medium is changed at 3 to 4 day interval (or as appropriate). The cells grow to confluency (approx. >75%–95%) within 7–8 days. All steps are done under sterile conditions. B. Membrane Preparation: The cells are washed twice gently with Hank's Balanced Salt solution (e.g. use 10 mL per T-150 flask). The excess solution is removed and the cells bathed for 15–30 min. in an enzyme-free Cell Dissociation Buffer (e.g. use 8 mL Hank's Based, Gibco Cat. # 13150-016 per T-150 flask) until cells are loosened. The contents are transferred to centrifuge tubes (50 mL size) kept in ice bath. All subsequent steps are done at 4° C. The tubes are centrifuged at 300×g for 15 min (1380 rpm on SORVAL, Model RT6000D, using rotor for 50 mL tubes). The supernatant is discarded and the cells suspended in homogeneizing buffer (10 mM Tris-HCl containing 0.25 M sucrose and 1 mM EDTA, pH 7.4) ensuring that the volume of the buffer is about ten times the volume of the cell pellet. The cells are pooled into a centrifuge tube (50 mL) and homogenized with Polytron at setting 6 for 10 sec. The homogenate is transferred into a Potter-Elvjehm homogeneizer and homogenized with 3 strokes. The homogenate is centrifuged at 1500×g for 60 min at 4° C. (3100 rpm using SORVAL, model RT6000D, using rotor for 50 mL tubes). The pellet is discarded. The supernatant is centrifuged at 100,000×g for 60 min. at 4° C. (Beckman L8-80M ultracentrifuge; spin at 37,500 rpm with rotor type 70 Ti for 50 mL tubes; 38,000 rpm with type 80Ti for 15 mL tubes; or 35,800 rpm with rotor type 45Ti). The supernantant is discarded and the pellet suspended in 3 to 4 mL of Tris buffer (50 mM TRIS-HCl, pH 7.4). The protein content is estimated by the Bradford or Lowry method. The volume of the membrane suspension is adjusted with the membrane buffer (50 mM Tris-HCl containing 0.1% BSA and 0.1 mM PMSF) to give 3.0 mg/mL (or as appropriate) of protein. The membranes are aliquoted and stored at −70° C. C. Radioligand Binding Assay:
In wells of a 96-well format microtiter plate, is added 90, 110 or 130 μL (to make up a final volume of 200 μL) of assay buffer containing 50 mM of Tris-HCl (pH 7.4), […], 1 mg % aprotinin, 1 mg % leupeptin, 2 mg % 1,10-phenanthroline, 10 mg % trypsin inhibitor, and 0.1 mM PMSF. The inhibitors are added on the day of the experiment. […]
Work on CC1=C(c2ccc(C(=O)N3Cc4cccn4Cc4ccccc43)cc2C)C(C)CCC1 (centres unmarked) [Example 33, (10,11-Dihydro-5H-pyrrolo[2,1-c][1,4]benzodiazepin-10-yl)-[4-(2,6-dimethyl-cyclohex-1-en-1-yl)-3-methyl-phenyl]-methanone] yielded an inhibition at 0.1 µM of 0%.
Work on Cc1cc(C(=O)N2Cc3cccn3Cc3ccccc32)ccc1C1=CC(O)CCC1 (centres unmarked) [Example 40, (10,11-Dihydro-5H-pyrrolo[2,1-c][1,4]benzodiazepin-10-yl)-[4-(3-hydroxy-cyclohex-1-en-1-yl)-3-methyl-phenyl]-methanone] yielded an inhibition at 0.1 µM of 48%.
For O=C(c1ccc(C2=CCC3CCC2C3)cc1)N1Cc2cccn2Cc2ccccc21 (centres unmarked) [Example 21], the “V2 % inhibition @ 100 nM” value was 5%.
In the case of CC1=C(c2ccc(C(=O)N3Cc4cccn4Cc4ccccc43)c(Cl)c2)CCCC1O (centres unmarked) [Example 14, (10,11-Dihydro-5H-pyrrolo[2,1-c][1,4]benzodiazepin-10-yl)-[2-chloro-4-(3-hydroxy-2-methyl-cyclohex-1-en-1-yl)-phenyl]-methanone], the inhibition at 0.1 µM is reported as 38%.
CC1=C(c2ccc(C(=O)N3Cc4cccn4Cc4ccccc43)cc2C)CCC[C@H]1O [Example 6, (10,11-Dihydro-5H-pyrrolo[2,1-c][1,4]benzodiazepin-10-yl)-[4-((3R)-3-hydroxy-2-methyl-cyclohex-1-en-1-yl)-3-methyl-phenyl]-methanone] gave an inhibition at 0.1 µM of 49%.
O=C(c1ccc(C2=CCCc3ccccc32)cc1)N1Cc2cccn2Cc2ccccc21 [Example 18, (10,11-Dihydro-5H-pyrrolo[2,1-c][1,4]benzodiazepin-10-yl)-[4-(3,4-dihydro-naphthalen-1-yl)-phenyl]-methanone] was tested, and the inhibition at 0.1 µM was 61%.
COc1cc(C2=C(C)C(=O)CCC2)c(Cl)cc1C(=O)N1Cc2cccn2Cc2ccccc21 [Example 9, 3-[2-Chloro-5-methoxy-4-(5H-pyrrolo[2,1-c][1,4]benzodiazepin-10(11H)-yl-carbonyl)phenyl]-2-methyl-cyclohex-2-en-1-one] was tested, and the inhibition at 0.1 µM was 69%.
Molecule Cc1cc(C(=O)N2Cc3cccn3Cc3ccccc32)ccc1C1=CCCCC1C(C)(C)C (centres unmarked) [Example 34, (10,11-Dihydro-5H-pyrrolo[2,1-c][1,4]benzodiazepin-10-yl)-[4-(6-tert-butyl-cyclohex-1-en-1-yl)-3-methyl-phenyl]-methanone] has an inhibition at 0.1 µM of 4%.
With CC1(C)CCCC=C1c1ccc(C(=O)N2Cc3cccn3Cc3ccccc32)cc1 [Example 17, (10,11-Dihydro-5H-pyrrolo[2,1-c][1,4]benzodiazepin-10-yl)-[4-(6,6-dimethyl-cyclohex-1-en-1-yl)-phenyl]-methanone] the inhibition at 0.1 µM was 43%.
For Cc1cc(C(=O)N2Cc3cccn3Cc3ccccc32)ccc1C1=CCCCC1C (centres unmarked) [Example 29, (10,11-Dihydro-5H-pyrrolo[2,1-c][1,4]benzodiazepin-10-yl)-[3-methyl-4-(6-methyl-cyclohex-1-en-1-yl)-phenyl]-methanone], the inhibition at 0.1 µM was 13%.
In the case of O=C(c1ccc(C2=CC(O)CCC2)cc1)N1Cc2cccn2Cc2ccccc21 (centres unmarked) [Example 25, (10,11-Dihydro-5H-pyrrolo[2,1-c][1,4]benzodiazepin-10-yl)-[4-(3-hydroxy-cyclohex-1-en-1-yl)-phenyl]-methanone], the inhibition at 0.1 µM is reported as 39%.
CC1=C(c2ccc(C(=O)N3Cc4cccn4Cc4ccccc43)cc2C)CCC[C@H]1O (single isomer, unassigned) [Example 41] showed an inhibition at 0.1 µM of 40%.
Work on COc1cccc(C2=C(c3ccc(C(=O)N4Cc5cccn5Cc5ccccc54)cc3C)CCCC2)c1 [Example 38, (10,11-Dihydro-5H-pyrrolo[2,1-c][1,4]benzodiazepin-10-yl)-{4-[2-(3-methoxy-phenyl)-cyclohex-1-en-1-yl]-3-methyl-phenyl}-methanone] yielded an inhibition at 0.1 µM of -9%.
Cc1cc(C(=O)N2Cc3cccn3Cc3ccccc32)ccc1C1=CCC2CC1C2(C)C (centres unmarked) [Example 36, (10,11-Dihydro-5H-pyrrolo[2,1-c][1,4]benzodiazepin-10-yl)-[4-(6,6-dimethyl-bicyclo[3.1.1]hept-2-en-2-yl)-3-methyl-phenyl]-methanone] was tested, and the inhibition at 0.1 µM was 3%.
Work on Cc1cc(C(=O)N2Cc3cccn3Cc3ccccc32)ccc1C1=CC(C)(C)CC(C)(C)C1 [Example 37, (10,11-Dihydro-5H-pyrrolo[2,1-c][1,4]benzodiazepin-10-yl)-[3-methyl-4-(3,3,5,5-tetramethyl-cyclohex-1-en-1-yl)-phenyl]-methanone] yielded an inhibition at 0.1 µM of 20%.
Cc1cc(C(=O)N2Cc3cccn3Cc3ccccc32)ccc1C1=CC(=O)CCC1 [Example 39, 3-[4-(10,11-Dihydro-5H-pyrrolo[2,1-c][1,4]benzodiazepine-10-carbonyl)-2-methyl-phenyl]-cyclohex-2-en-1-one] was tested, and the inhibition at 0.1 µM was 38%.

Same assay, conditions: values in parentheses
Work on O=C(c1ccc(C2=CCCCC2)cc1)N1Cc2cccn2Cc2ccccc21 [Example 15, (10,11-Dihydro-5H-pyrrolo[2,1-c][1,4]benzodiazepin-10-yl)-(4-cyclohex-1-en-1-yl-phenyl)-methanone] yielded an IC50 of 774 nM.
